This note sets out measurements from ChEMBL document CHEMBL6074712, “Optimization of Potent and Selective Cyclohexyl Acid ERAP1 Inhibitors Using Structure- and Property-Based Drug Design” (ACS Med Chem Lett, 2024).

The nature of the data set: physchem. The following applies: buffer.

Description: Aqueous solubility of compound

The kinetic solubility is the concentration staying in solution when a stock, usually in DMSO, is diluted into the medium. Consider `O=C(CN1C(=O)COc2ccc(Cl)cc21)NC1(C(=O)O)CCCCC1`, for which the kinetic solubility was no less than 112 µg/mL.
Then `O=C(Cn1c(=O)oc2ccc(-c3ccccc3)cc21)NC1(C(=O)O)CCCCC1`, with no less than 157 µg/mL; and `O=C(CN1C(=O)COc2ccc(C(F)(F)F)cc21)NC1(C(=O)O)CCCCC1`, with no less than 172 µg/mL.
